Laboratory results from patent publication US20230265151A1, “GIP/GLP1 CO-AGONIST COMPOUNDS” (priority 2020, published 2023).
Read-outs that look alike come from different tables or passages of the source.

T1: human GIP receptor (hGIPR) (Homo sapiens, UniProt P48546)
T1 construct: expressed in transfected cells; crude membranes
T1 sequence (P48546 22-466): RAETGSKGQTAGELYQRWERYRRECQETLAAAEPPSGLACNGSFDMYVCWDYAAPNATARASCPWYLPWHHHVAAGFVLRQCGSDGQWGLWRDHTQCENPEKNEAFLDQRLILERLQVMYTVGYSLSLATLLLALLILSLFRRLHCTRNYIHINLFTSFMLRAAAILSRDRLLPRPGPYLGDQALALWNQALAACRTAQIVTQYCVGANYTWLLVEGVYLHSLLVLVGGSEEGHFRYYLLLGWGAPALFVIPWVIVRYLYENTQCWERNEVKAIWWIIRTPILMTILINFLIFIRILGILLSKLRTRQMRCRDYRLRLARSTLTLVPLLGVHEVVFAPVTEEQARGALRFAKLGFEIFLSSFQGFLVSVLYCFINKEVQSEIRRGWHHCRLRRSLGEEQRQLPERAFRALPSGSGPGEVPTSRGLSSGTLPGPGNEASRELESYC

T2: hGIPR (Homo sapiens, UniProt P48546)
T2 construct: expressed in transfected cells
T2 sequence (P48546 22-466): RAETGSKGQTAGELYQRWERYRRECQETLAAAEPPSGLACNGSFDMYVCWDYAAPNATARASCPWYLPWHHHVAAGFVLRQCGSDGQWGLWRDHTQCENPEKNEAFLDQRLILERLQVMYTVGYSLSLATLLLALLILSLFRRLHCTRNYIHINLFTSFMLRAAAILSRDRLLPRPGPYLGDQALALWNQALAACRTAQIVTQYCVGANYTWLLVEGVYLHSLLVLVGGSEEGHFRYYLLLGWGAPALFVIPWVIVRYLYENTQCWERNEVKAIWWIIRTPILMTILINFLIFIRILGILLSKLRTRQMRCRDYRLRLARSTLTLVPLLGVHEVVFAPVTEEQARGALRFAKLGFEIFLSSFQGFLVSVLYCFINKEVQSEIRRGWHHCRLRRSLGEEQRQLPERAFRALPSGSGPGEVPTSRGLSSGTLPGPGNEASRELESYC

T3: human glucose-dependent insulinotropic polypeptide (GIP) receptor (human) (UniProt P48546)
T3 sequence (looked up): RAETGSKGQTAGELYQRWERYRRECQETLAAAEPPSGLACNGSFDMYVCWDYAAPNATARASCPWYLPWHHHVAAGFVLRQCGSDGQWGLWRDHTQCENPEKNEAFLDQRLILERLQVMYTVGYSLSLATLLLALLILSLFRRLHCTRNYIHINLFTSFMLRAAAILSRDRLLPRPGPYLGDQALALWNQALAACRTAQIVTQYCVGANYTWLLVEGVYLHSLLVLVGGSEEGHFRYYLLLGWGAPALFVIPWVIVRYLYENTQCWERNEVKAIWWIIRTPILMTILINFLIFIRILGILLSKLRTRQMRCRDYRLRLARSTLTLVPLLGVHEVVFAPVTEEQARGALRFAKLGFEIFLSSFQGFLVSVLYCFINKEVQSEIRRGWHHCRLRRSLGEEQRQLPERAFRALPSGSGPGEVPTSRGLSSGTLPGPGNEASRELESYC

T4: human GIP receptor (human, UniProt P48546 22-466)
T4 sequence (looked up): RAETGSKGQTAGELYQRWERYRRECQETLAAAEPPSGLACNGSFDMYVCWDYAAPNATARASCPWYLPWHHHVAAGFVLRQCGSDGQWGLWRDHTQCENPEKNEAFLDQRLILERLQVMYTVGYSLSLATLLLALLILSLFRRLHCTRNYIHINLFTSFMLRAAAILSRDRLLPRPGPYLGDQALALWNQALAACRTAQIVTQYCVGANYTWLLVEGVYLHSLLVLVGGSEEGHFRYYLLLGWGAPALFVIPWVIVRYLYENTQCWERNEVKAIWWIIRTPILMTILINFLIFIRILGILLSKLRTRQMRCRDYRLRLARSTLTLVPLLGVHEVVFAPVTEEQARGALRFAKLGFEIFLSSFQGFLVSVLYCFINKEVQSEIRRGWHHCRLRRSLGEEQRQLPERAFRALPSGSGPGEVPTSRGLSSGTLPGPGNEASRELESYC

B1: Example 220 (peptide)
peptide: YXEGTXTSDXXIXLDXIAQXKFIXXLIKGGPSSGAPPPS
modifications: Y-Aib-EGT-αMeF(2F)-TSD-4Pal-Aib-I-αMeL-LD-Orn-IAQ-Aib-K((2-[2-(2-Amino-ethoxy)-ethoxy]-acetyl)2-(γ-Glu)-CO-(CH2)12-CO2H)FI-(D-Glu)-αMeY-LIK((2-[2-(2-Amino-ethoxy)-ethoxy]-acetyl)2-(γ-Glu)-CO-(CH2)12-CO2H)GGPSSGAPPPS-NH2
B2: Example 244 (peptide)
peptide: YXEGTXTSDXXIXLDXKAQXEFIXXLIKGGPSSGAPPPS
modifications: Y-Aib-EGT-αMeF(2F)-TSD-4Pal-Aib-I-αMeL-LD-Orn-K((2-[2-(2-Amino-ethoxy)-ethoxy]-acetyl)2-(γ-Glu)-(10-(4-carboxyphenoxy)decanoyl))AQ-Aib-EFI-(D-Glu)-αMeY-LIK((2-[2-(2-Amino-ethoxy)-ethoxy]-acetyl)2-(γ-Glu)-(10-(4-carboxyphenoxy)decanoyl))GGPSSGAPPPS-NH2

Key:
[1] = target: T5, human GLP-1 receptor (hGLP-1R) (Homo sapiens, UniProt P43220); experiment: [125I]-GLP-1 binding, SPA with membranes of HEK293 cells expressing hGLP-1R; settings: human GLP-1R; geometric mean (SEM, n); read-out: Binding Affinity Ki, nM (SEM, n) hGLP-1R
T5 construct: expressed in transfected cells; crude membranes
T5 sequence (P43220 24-463): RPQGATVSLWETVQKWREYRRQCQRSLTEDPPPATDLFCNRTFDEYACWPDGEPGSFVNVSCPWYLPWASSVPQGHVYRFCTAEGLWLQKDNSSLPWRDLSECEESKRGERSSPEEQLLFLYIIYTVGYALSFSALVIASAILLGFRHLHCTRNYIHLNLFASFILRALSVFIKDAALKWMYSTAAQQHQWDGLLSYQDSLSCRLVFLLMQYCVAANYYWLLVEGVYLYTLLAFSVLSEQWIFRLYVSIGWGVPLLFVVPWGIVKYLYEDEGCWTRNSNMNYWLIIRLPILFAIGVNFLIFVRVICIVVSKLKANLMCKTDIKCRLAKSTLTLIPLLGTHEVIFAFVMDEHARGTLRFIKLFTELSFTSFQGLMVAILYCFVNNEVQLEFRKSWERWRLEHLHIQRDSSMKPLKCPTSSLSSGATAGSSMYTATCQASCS

[2] = target: T1, human GIP receptor (hGIPR); experiment: [125I]-GIP binding, SPA with membranes of CHO cells expressing hGIPR; settings: human GIPR; geometric mean (SEM, n); read-out: Binding Affinity Ki, nM (SEM, n) hGIPR
[3] = target: T6, human Gcg receptor (hGcgR) (Homo sapiens, UniProt P47871); experiment: [125I]-Glucagon binding, SPA with membranes of HEK293 cells expressing hGcgR; settings: human GcgR; geometric mean (SEM, n); read-out: Binding Affinity Ki, nM (SEM, n) hGCGR
T6 construct: expressed in transfected cells; crude membranes
T6 sequence (P47871 26-477): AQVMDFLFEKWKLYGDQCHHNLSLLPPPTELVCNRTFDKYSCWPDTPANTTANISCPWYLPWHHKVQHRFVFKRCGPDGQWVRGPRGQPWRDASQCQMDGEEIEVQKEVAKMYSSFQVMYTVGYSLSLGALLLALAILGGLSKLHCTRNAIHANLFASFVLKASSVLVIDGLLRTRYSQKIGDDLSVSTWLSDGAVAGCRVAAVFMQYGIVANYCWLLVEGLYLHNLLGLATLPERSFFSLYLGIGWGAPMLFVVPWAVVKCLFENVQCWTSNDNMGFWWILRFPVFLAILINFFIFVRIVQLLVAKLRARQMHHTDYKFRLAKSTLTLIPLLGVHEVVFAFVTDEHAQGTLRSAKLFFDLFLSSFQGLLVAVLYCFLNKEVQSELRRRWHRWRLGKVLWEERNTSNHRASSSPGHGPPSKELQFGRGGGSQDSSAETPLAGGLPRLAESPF

[4] = target: T7, hGCGR (Homo sapiens, UniProt P47871); experiment: Functional cAMP formation (HTRF) in HEK-293 clonal cells expressing hGCGR, 0.1% bovine casein, without or with 1.0% human serum albumin; format: cell-based; settings: cAMP, 37° C., read-out: hGCGR EC50, nM (SEM, n)
T7 construct: expressed in transfected cells
T7 sequence (P47871 26-477): as above
Summary of the method: (§1)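 Cells were stimulated with peptide for 30 min at 37° C, then intracellular cAMP was measured by competitive HTRF (665/620 nm ratio) and converted to nM using a cAMP standard curve. Relative EC50 and Emax came from four-parameter logistic fits of percent maximal response against peptide concentration.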

[5] = target: T2, hGIPR; experiment: Functional cAMP formation (HTRF) in HEK-293 clonal cells expressing hGIPR, 0.1% bovine casein, without or with 1.0% human serum albumin; format: cell-based; settings: 37° C.; for Emax: HEK293, cAMP, 0.1% bovine casein and 1.0% human serum albumin, percent of maximal response to GIP(1-42)NH2, read-out: hGIPR Emax, % ± SEM; for EC50: cAMP, 0.1% bovine casein (no human serum albumin), geometric mean, read-out: hGIPR EC50, nM (SEM, n)
Summary of the method: as §1

[6] = target: hGLP-1R (Homo sapiens, UniProt P43220); experiment: Functional cAMP formation (HTRF) in HEK-293 clonal cells expressing hGLP-1R, 0.1% bovine casein, without or with 1.0% human serum albumin; format: cell-based; parameters: expressed in transfected cells; settings: 37° C.; for EC50: cAMP, 0.1% bovine casein (no human serum albumin), geometric mean, read-out: hGLP-1R EC50, nM (SEM, n)
Sequence of hGLP-1R (P43220 24-463): as the sequence (P43220 24-463) above
Summary of the method: as §1

[7] = target: human glucagon-like peptide-1 (GLP-1) receptor (human) (UniProt P43220); experiment: cell-based or functional assay
[8] = target: human glucagon receptor (human) (UniProt P47871); experiment: cell-based or functional assay
[9] = target: T3, human glucose-dependent insulinotropic polypeptide (GIP) receptor (human); experiment: cell-based or functional assay
[10] = target: human glucagon receptor (human, UniProt P47871 26-477); experiment: cell-based or functional assay
[11] = target: T4, human GIP receptor; experiment: cell-based or functional assay
[12] = target: human GLP-1 receptor (human, UniProt P43220 24-463); experiment: cell-based or functional assay
[13] = 0.1% bovine casein (no human serum albumin), geometric mean
[14] = 0.1% bovine casein and 1.0% human serum albumin, geometric mean (SEM, n)

Row | Molecule | Ki [1] | Ki [2] | Ki [3] | EC50 [4, 13] | EC50 [4, 14] | Emax [5] | EC50 [5] | Emax ([6]; HEK293, cAMP, 0.1% bovine casein and 1.0% human serum albumin, percent of maximal response to GLP-1(7-36)NH2, read-out: hGLP-1R Emax, % ± SEM) | EC50 [6] | cAMP EC50 [7] | cAMP Emax [7] | cAMP EC50 [8] | cAMP EC50 [9] | cAMP Emax [9] | cAMP EC50 (1.0% HSA) [10] | cAMP EC50 (1.0% HSA) [11] | cAMP Emax (1.0% HSA) [11] | cAMP EC50 (1.0% HSA) [12] | cAMP Emax (1.0% HSA) [12]
1 | CC[C@H](C)[C@H](NC(=O)[C@H](CC(C)C)NC(=O)[C@](C)(Cc1ccc(O)cc1)NC(=O)[C@H](CCCCNC(=O)COCCOCCNC(=O)COCCOCCNC(=O)COCCOCCNC(=O)CC[C@H](NC(=O)CCCCCCCCCCCCC(=O)O)C(=O)O)NC(=O)[C@@H](NC(=O)[C@H](Cc1ccccc1)NC(=O)[C@H](CCCN)NC(=O)C(C)(C)NC(=O)[C@H](CCC(N)=O)NC(=O)[C@H](C)NC(=O)[C@H](CCC(N)=O)NC(=O)[C@H](CCCN)NC(=O)[C@H](CC(=O)O)NC(=O)[C@H](CC(C)C)NC(=O)[C@](C)(CC(C)C)NC(=O)[C@@H](NC(=O)C(C)(C)NC(=O)[C@H](Cc1ccc(O)cc1)NC(=O)[C@H](CC(=O)O)NC(=O)[C@H](CO)NC(=O)[C@@H](NC(=O)[C@](C)(Cc1ccccc1F)NC(=O)[C@@H](NC(=O)CNC(=O)[C@H](CCC(=O)O)NC(=O)C(C)(C)NC(=O)[C@@H](N)Cc1ccc(O)cc1)[C@@H](C)O)[C@@H](C)O)[C@@H](C)CC)[C@@H](C)CC)C(=O)N[C@@H](CCCCNC(=O)COCCOCCNC(=O)COCCOCCNC(=O)COCCOCCNC(=O)CC[C@H](NC(=O)CCCCCCCCCCCCC(=O)O)C(=O)O)C(=O)NCC(=O)NCC(=O)N1CCC[C@H]1C(=O)N[C@@H](CO)C(=O)N[C@@H](CO)C(=O)NCC(=O)N[C@@H](C)C(=O)N1CCC[C@H]1C(=O)N1CCC[C@H]1C(=O)N1CCC[C@H]1C(=O)N[C@@H](CO)C(N)=O [Example 479] | 0.246 nM | 0.0249 nM | 213 nM | > 9950 nM | > 9950 nM | 89.5% | 0.00718 nM | 95.3% | 0.115 nM |  |  |  |  |  |  |  |  |  | 
2 | CCCCCCCCCCCC(=O)N[C@@H](CCC(=O)NCCOCCOCC(=O)NCCOCCOCC(=O)NCCCC[C@H](NC(=O)[C@H](CCCN)NC(=O)[C@H](CC(=O)O)NC(=O)[C@H](CC(C)C)NC(=O)[C@](C)(CC(C)C)NC(=O)[C@@H](NC(=O)C(C)(C)NC(=O)[C@H](Cc1ccncc1)NC(=O)[C@H](CC(=O)O)NC(=O)[C@H](CO)NC(=O)[C@@H](NC(=O)[C@](C)(Cc1ccccc1F)NC(=O)[C@@H](NC(=O)CNC(=O)[C@H](CCC(=O)O)NC(=O)C(C)(C)NC(=O)[C@@H](N)Cc1ccc(O)cc1)[C@@H](C)O)[C@@H](C)O)[C@@H](C)CC)C(=O)N[C@@H](C)C(=O)N[C@@H](CCC(N)=O)C(=O)NC(C)(C)C(=O)NCC(=O)N[C@@H](Cc1ccccc1)C(=O)N[C@H](C(=O)N[C@H](CCC(=O)O)C(=O)N[C@@](C)(Cc1ccc(O)cc1)C(=O)N[C@@H](CC(C)C)C(=O)N[C@H](C(=O)N[C@@H](CCCCNC(=O)COCCOCCNC(=O)COCCOCCNC(=O)CC[C@H](NC(=O)CCCCCCCCCCC)C(=O)O)C(=O)NCC(=O)NCC(=O)N1CCC[C@H]1C(=O)N[C@@H](CO)C(=O)N[C@@H](CO)C(=O)NCC(=O)N[C@@H](C)C(=O)N1CCC[C@H]1C(=O)N1CCC[C@H]1C(=O)N1CCC[C@H]1C(=O)N[C@@H](CO)C(N)=O)[C@@H](C)CC)[C@@H](C)CC)C(=O)O [Example 494] | 0.188 nM | 0.0197 nM | 135 nM | > 9950 nM | > 9950 nM | 92.6% | 0.0123 nM |  | 0.15 nM |  |  |  |  |  |  |  |  |  | 
3 | B1 |  |  |  |  |  |  |  |  |  | 0.535 nM | 87.6% | > 9950 nM | 0.0237 nM | 91.6% | > 9950 nM | 11.6 nM | 83.5% | 150 nM | 110%
4 | B2 |  |  |  |  |  |  |  |  |  | 2.25 nM | 104% | > 9950 nM | 0.0218 nM | 101% |  | 0.983 nM |  | 30.8 nM | 
